In patent US20110009265A1, “Herbicidal Compositions Comprising Pyroxasulfone” (BASF SE, priority 2008, published 2011):
Where two headings read alike, the source gives them in different places.

Experiments:
Type in all cases: in vivo
[1] = tested on: Galium aparine (GALAP); test: greenhouse pre-emergence herbicidal activity; details: read-out: observed % activity; for inhibition at 125 g/ha: 125 g ai/ha; for inhibition at 250 g/ha: 250 g ai/ha
From the text: (§1) For the pre-emergence treatment, directly after sowing the active compounds, which had been suspended or emulsified in water, were applied by means of finely distributed nozzles. The containers were irrigated gently to promote germination and growth and subsequently covered with transparent plastic hoods until plant had rooted. This cover caused uniform germination of the tests plants, unless this was adversely affected by active compounds.
(§2) The respective herbicides A and/or safener were formulated as 10% by weight strength suspension concentrate and introduced to the spray liquor with the amount of solvent system used for applying the active compound. Herbicide B and/or safener were used as commercially available formulations and introduced to the spray liquor with the amount of solvent system used for applying the active compound. In the examples, the solvent used was water.
(§3) Pendimethalin was used as a commercial aqueous suspension concentrate having an active ingredient concentration of 400 g/l.
(§4) The test period extended over 21 days. During this time, the plants were tended, and their response to the treatments with active compound was evaluated.
(§5) The evaluation for the damage caused by the chemical compositions was carried out using a scale from 0 to 100%, compared to the untreated control plants. Here, 0 means no damage and 100 means complete destruction of the plants.
(§6) The value E, which is to be expected if the activity of the individual compounds is just additive, was calculated using the method of S. R. Colby (1967) “Calculating synergistic and antagonistic responses of herbicide combinations”, Weeds 15, p. 22 ff.
(§7) where • X=effect in percent using herbicide A at an application rate a; • Y=effect in percent using herbicide B at an application rate b; • E=expected effect (in %) of A+B at application rates a+b.
(§8) If the value observed in this manner is higher than the value E calculated according to Colby, a synergistic effect is present.

[2] = tested on: Bromus inermis (BROIN); test: greenhouse pre-emergence herbicidal activity; details: read-out: observed % activity; for inhibition at 125 g/ha: 125 g ai/ha; for inhibition at 250 g/ha: 250 g ai/ha
From the text: as §1, §2, §3, §4, §5, §6, §7, §8

[3] = tested on: Phalaris canariensis (PHACA); test: greenhouse pre-emergence herbicidal activity; details: read-out: observed % activity; for inhibition at 125 g/ha: 125 g ai/ha; for inhibition at 250 g/ha: 250 g ai/ha
From the text: as §1, §2, §3, §4, §5, §6, §7, §8

[4] = tested on: Avena fatua (AVEFA); test: greenhouse pre-emergence herbicidal activity; details: 125 g ai/ha, read-out: observed % activity
From the text: as §1, §2, §3, §4, §5, §6, §7, §8

[5] = tested on: Veronica persica (VERPE); test: greenhouse pre-emergence herbicidal activity; details: read-out: observed % activity; for inhibition at 250 g/ha: 250 g ai/ha; for inhibition at 500 g/ha: 500 g ai/ha; for inhibition at 1000 g/ha: 1000 g ai/ha
From the text: as §1, §2, §3, §4, §5, §6, §7, §8

[6] = tested on: Thlaspi arvense (THLAR); test: greenhouse pre-emergence herbicidal activity; details: 125 g ai/ha, read-out: observed % activity
From the text: as §1, §2, §3, §4, §5, §6, §7, §8

[7] = tested on: Capsella bursa-pastoris (CAPBP); test: greenhouse pre-emergence herbicidal activity; details: 500 g ai/ha, read-out: observed % activity
From the text: as §1, §2, §3, §4, §5, §6, §7, §8

[8] = tested on: Amaranthus retroflexus (AMARE); test: greenhouse post-emergence herbicidal activity; details: 500 g ai/ha, 20 DAT
From the text: (§9) For the post-emergence treatment, the test plants were first grown to a height of 3 to 20 cm, depending on the plant habit, and only then treated. Here, the herbicidal compositions were suspended or emulsified in water as distribution medium and sprayed using finely distributing nozzles.
as §2, §3, §4, §5, §6, §7, §8

[9] = tested on: Matricaria inermis (MATIN); test: greenhouse post-emergence herbicidal activity; details: 250 g ai/ha, read-out: observed % activity
From the text: as §9, §2, §3, §4, §5, §6, §7, §8

[10] = tested on: Alopecurus myosuroides (ALOMY); test: greenhouse post-emergence herbicidal activity; details: 250 g ai/ha; for inhibition at 250 g/ha: Alopecurus myosuroides, read-out: observed % activity
From the text: as §9, §2, §3, §4, §5, §6, §7, §8

[11] = tested on: Apera spica-venti (APESV); test: greenhouse post-emergence herbicidal activity; details: 500 g ai/ha, 20 DAT
From the text: as §9, §2, §3, §4, §5, §6, §7, §8

[12] = tested on: Lamium purpureum (LAMPU); test: greenhouse post-emergence herbicidal activity; details: 500 g ai/ha, 20 DAT
From the text: as §9, §2, §3, §4, §5, §6, §7, §8

[13] = tested on: Stellaria media (STEME); test: greenhouse post-emergence herbicidal activity; details: 20 DAT
From the text: as §9, §2, §3, §4, §5, §6, §7, §8

[14] = tested on: Viola arvensis (VIOAR); test: greenhouse post-emergence herbicidal activity; details: 500 g ai/ha, 20 DAT
From the text: as §9, §2, §3, §4, §5, §6, §7, §8

[15] = tested on: Thlaspi arvense (THLAR); test: greenhouse post-emergence herbicidal activity; details: for inhibition at 250 g/ha: Thlaspi arvense, read-out: observed % activity
From the text: as §9, §2, §3, §4, §5, §6, §7, §8

[16] = tested on: Capsella bursa-pastoris (CAPBP); test: greenhouse post-emergence herbicidal activity; details: 1000 g ai/ha, 20 DAT
From the text: as §9, §2, §3, §4, §5, §6, §7, §8

CCC(CC)Nc1c([N+](=O)[O-])cc(C)c(C)c1[N+](=O)[O-] [pendimethalin] gave an inhibition at 125 g/ha ([1]; 192 h, 8 DAT) of 0%, an inhibition at 250 g/ha ([1]; 192 h, 8 DAT) of 0% and an inhibition at 125 g/ha ([1]; 480 h, 20 DAT) of 0%. For the same compound, the inhibition at 250 g/ha ([1]; 480 h, 20 DAT) was 0%, the inhibition at 125 g/ha ([2]; 192 h, 8 DAT) was 20% and the inhibition at 250 g/ha ([2]; 192 h, 8 DAT) was 20%. It also gave an inhibition at 125 g/ha ([2]; 480 h, 20 DAT) of 0%, an inhibition at 250 g/ha ([2]; 480 h, 20 DAT) of 0% and an inhibition at 125 g/ha ([3]; 192 h, 8 DAT) of 0%. For the same compound, the inhibition at 250 g/ha ([3]; 192 h, 8 DAT) was 30%, the inhibition at 125 g/ha ([3]; 480 h, 20 DAT) was 0% and the inhibition at 250 g/ha ([3]; 480 h, 20 DAT) was 0%. The inhibition at 125 g/ha ([4]; 192 h, 8 DAT) was 0%, the inhibition at 125 g/ha ([4]; 480 h, 20 DAT) was 0% and the inhibition at 250 g/ha ([5]; 192 h, 8 DAT) was 65%. It also gave an inhibition at 500 g/ha ([5]; 192 h, 8 DAT) of 65%, an inhibition at 1000 g/ha ([5]; 192 h, 8 DAT) of 70% and an inhibition at 250 g/ha ([5]; 480 h, 20 DAT) of 85%. For the same compound, the inhibition at 500 g/ha ([5]; 480 h, 20 DAT) was 85%, the inhibition at 1000 g/ha ([5]; 480 h, 20 DAT) was 90% and the inhibition at 125 g/ha ([6]; 192 h, 8 DAT) was 0%. The inhibition at 125 g/ha ([6]; 480 h, 20 DAT) was 20%, the inhibition at 500 g/ha ([7]; 192 h, 8 DAT) was 50% and the inhibition at 500 g/ha ([7]; 480 h, 20 DAT) was 85%. For the same compound, the “observed activity in % destruction 20 days after treatment” value [8] was 80%, the inhibition at 250 g/ha ([9]; 168 h, 7 DAT) was 0% and the inhibition at 250 g/ha ([9]; 480 h, 20 DAT) was 0%. For the same compound, the “observed activity in % destruction 20 days after treatment” value ([10]; 20 DAT) was 45%, the inhibition at 250 g/ha ([10]; 168 h, 7 DAT) was 35% and the inhibition at 250 g/ha ([10]; 480 h, 20 DAT) was 45%. For the same compound, the “observed activity in % destruction 20 days after treatment” value [11] was 10%, the “observed activity in % destruction 20 days after treatment” value [12] was 90% and the “observed activity in % destruction 20 days after treatment” value ([13]; 250 g ai/ha) was 85%. The “observed activity in % destruction 20 days after treatment” value ([13]; 1000 g ai/ha) was 90%, the “observed activity in % destruction 20 days after treatment” value [14] was 85% and the “observed activity in % destruction 20 days after treatment” value ([15]; 250 g ai/ha, 20 DAT) was 80%. For the same compound, the “observed activity in % destruction 20 days after treatment” value ([15]; 1000 g ai/ha, 20 DAT) was 90%, the inhibition at 250 g/ha ([15]; 168 h, 250 g ai/ha, 7 DAT) was 55% and the inhibition at 250 g/ha ([15]; 480 h, 250 g ai/ha, 20 DAT) was 80%. For the same compound, the “observed activity in % destruction 20 days after treatment” value [16] was 95%.
